Here are results for two compounds from ChEMBL document CHEMBL3875180, “8-Thioalkyl-adenosine derivatives inhibit Listeria monocytogenes NAD kinase through a novel binding mode” (Eur J Med Chem, 2016).

Data set [1] concerns the target T1, NAD kinase (Homo sapiens, UniProt O95544).
T1 sequence (O95544 whole entry): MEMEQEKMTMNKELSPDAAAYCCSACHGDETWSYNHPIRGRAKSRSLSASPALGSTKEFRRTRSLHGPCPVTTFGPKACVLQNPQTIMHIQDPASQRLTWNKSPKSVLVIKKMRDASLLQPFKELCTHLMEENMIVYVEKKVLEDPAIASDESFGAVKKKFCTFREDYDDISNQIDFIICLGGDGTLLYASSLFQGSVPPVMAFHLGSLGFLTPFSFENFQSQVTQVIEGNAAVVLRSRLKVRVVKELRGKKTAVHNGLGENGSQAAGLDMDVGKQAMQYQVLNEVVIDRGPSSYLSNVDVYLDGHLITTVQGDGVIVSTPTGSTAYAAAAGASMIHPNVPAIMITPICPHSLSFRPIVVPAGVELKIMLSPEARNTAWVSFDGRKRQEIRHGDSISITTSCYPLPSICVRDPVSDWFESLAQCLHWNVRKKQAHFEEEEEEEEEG
Nature of the data set: Inhibition of human NADK expressed in Escherichia coli BL21(DE3) assessed as reduction in NADP production using NAD as substrate by glucose-6-phosphate dehydrogenase coupled enzyme based spectrophotometric method.

Another data set deals with Bacillus subtilis. The experiment in a line: Inhibition of Bacillus subtilis NADK1 expressed in Escherichia coli BL21(DE3) assessed as reduction in NADP production at 300 uM using NAD as substrate by glucose-6-phosphate dehydrogenase coupled enzyme based spectrophotometric method relative to control.
Data set [2] in a line: Inhibition of human NADK harboring Listeria monocytogenes NADK1 segment 1 expressed in Escherichia coli BL21(DE3) assessed as reduction in NADP production using NAD as substrate by glucose-6-phosphate dehydrogenase coupled enzyme based spectrophotometric method.
The nature of data set [3]: Inhibition of Listeria monocytogenes C-terminal His6-tagged NADK1 P132S mutant expressed in Escherichia coli BL21(DE3) assessed as reduction in NADP production using varying levels of NAD as substrate by glucose-6-phosphate dehydrogenase coupled enzyme based spectrophotometric method.
Data set [4] in a line: Inhibition of Bacillus subtilis NADK1 harboring Listeria monocytogenes NADK1 segment 2 expressed in Escherichia coli BL21(DE3) assessed as reduction in NADP production using NAD as substrate by glucose-6-phosphate dehydrogenase coupled enzyme based spectrophotometric method.
The nature of data set [5]: Inhibition of Listeria monocytogenes C-terminal His6-tagged NADK1 harboring Staphylococcus aureus COL NADK segment 1 expressed in Escherichia coli BL21(DE3) assessed as reduction in NADP production using NAD as substrate by glucose-6-phosphate dehydrogenase coupled enzyme based spectrophotometric method.
A short description of data set [6]: Competitive inhibition of Listeria monocytogenes C-terminal His6-tagged NADK1 expressed in Escherichia coli BL21(DE3) assessed as reduction in NADP production using varying levels of NAD as substrate by glucose-6-phosphate dehydrogenase coupled enzyme based spectrophotometric method.
Data set [7] in a line: Inhibition of Bacillus subtilis NADK1 S132P mutant expressed in Escherichia coli BL21(DE3) assessed as reduction in NADP production using NAD as substrate by glucose-6-phosphate dehydrogenase coupled enzyme based spectrophotometric method.
Data set [8] deals with T2, NAD kinase (Staphylococcus aureus (strain COL), UniProt Q5HH78).
T2 sequence (Q5HH78 whole entry): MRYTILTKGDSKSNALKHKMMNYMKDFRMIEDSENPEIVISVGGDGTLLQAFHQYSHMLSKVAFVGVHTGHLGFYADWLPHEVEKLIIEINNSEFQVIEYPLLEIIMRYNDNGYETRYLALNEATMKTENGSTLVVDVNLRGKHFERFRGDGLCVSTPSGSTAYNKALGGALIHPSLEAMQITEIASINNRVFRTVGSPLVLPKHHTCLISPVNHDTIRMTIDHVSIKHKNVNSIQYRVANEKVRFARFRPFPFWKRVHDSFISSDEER
The experiment in a line: Inhibition of Staphylococcus aureus COL NADK expressed in Escherichia coli BL21(DE3) assessed as reduction in NADP production using NAD as substrate by glucose-6-phosphate dehydrogenase coupled enzyme based spectrophotometric method. Further details: species or system Staphylococcus aureus subsp. aureus COL.

Data set [9] in a line: Inhibition of Bacillus subtilis NADK1 harboring Listeria monocytogenes NADK1 segment 1 expressed in Escherichia coli BL21(DE3) assessed as reduction in NADP production using NAD as substrate by glucose-6-phosphate dehydrogenase coupled enzyme based spectrophotometric method.
Data set [10] can be described thus: Cytotoxicity against human MRC5 cells up to 1 x 10^-4M. Format: toxicity, cell-based.
A short description of data set [11]: Inhibition of Staphylococcus aureus COL NADK S132P mutant expressed in Escherichia coli BL21(DE3) assessed as reduction in NADP production using NAD as substrate by glucose-6-phosphate dehydrogenase coupled enzyme based spectrophotometric method. Further details: species or system Staphylococcus aureus subsp. aureus COL.
Data set [12] can be described thus: Ratio of Ki for human NADK harboring Listeria monocytogenes NADK1 segment 1 expressed in Escherichia coli BL21(DE3) to Ki for human NADK expressed in Escherichia coli BL21(DE3).

pIC50, pKi: −log10 of the molar value. A value given as a limit tells only on which side of the number the result lay.

Take `[N-]=[N+]=NC[C@H]1O[C@@H](n2c(SCC(=O)NCCc3cccc(Br)c3)nc3c(N)ncnc32)[C@H](O)[C@@H]1O`: the negative-log Ki (pKi) is 3.48 on NAD kinase [1]; 4.12 in [2]; 5.00 in [3]; 4.52 in data set [4]; 5.60 in [5]; 6.00 in data set [6]. Further, the pKi in data set [7] was 4.00; in data set [9], 4.26; in [11], 3.77. The inhibition in the data set with Bacillus subtilis turned out to be 15%. The pIC50 at NAD kinase [8] was less than 3.40. Further, in data set [10], the Activity result is reported as “Non-Toxic”.

Take `[N-]=[N+]=NC[C@H]1O[C@@H](n2c(SCC(=O)NCCc3ccccc3)nc3c(N)ncnc32)[C@H](O)[C@@H]1O`: the pKi on NAD kinase [1] is 3.46; in data set [6], 5.30. Also, the pIC50 on NAD kinase [8] is less than 3.40. Besides, in data set [12], the Ratio Ki worked out at 3. Besides, in [10], the Activity entry is given as “Non-Toxic”.
